What all share (format): functional
Experiment [1] addresses T1, Short transient receptor potential channel 4 (Mus musculus, UniProt Q9QUQ5).
T1 sequence (Q9QUQ5 whole entry): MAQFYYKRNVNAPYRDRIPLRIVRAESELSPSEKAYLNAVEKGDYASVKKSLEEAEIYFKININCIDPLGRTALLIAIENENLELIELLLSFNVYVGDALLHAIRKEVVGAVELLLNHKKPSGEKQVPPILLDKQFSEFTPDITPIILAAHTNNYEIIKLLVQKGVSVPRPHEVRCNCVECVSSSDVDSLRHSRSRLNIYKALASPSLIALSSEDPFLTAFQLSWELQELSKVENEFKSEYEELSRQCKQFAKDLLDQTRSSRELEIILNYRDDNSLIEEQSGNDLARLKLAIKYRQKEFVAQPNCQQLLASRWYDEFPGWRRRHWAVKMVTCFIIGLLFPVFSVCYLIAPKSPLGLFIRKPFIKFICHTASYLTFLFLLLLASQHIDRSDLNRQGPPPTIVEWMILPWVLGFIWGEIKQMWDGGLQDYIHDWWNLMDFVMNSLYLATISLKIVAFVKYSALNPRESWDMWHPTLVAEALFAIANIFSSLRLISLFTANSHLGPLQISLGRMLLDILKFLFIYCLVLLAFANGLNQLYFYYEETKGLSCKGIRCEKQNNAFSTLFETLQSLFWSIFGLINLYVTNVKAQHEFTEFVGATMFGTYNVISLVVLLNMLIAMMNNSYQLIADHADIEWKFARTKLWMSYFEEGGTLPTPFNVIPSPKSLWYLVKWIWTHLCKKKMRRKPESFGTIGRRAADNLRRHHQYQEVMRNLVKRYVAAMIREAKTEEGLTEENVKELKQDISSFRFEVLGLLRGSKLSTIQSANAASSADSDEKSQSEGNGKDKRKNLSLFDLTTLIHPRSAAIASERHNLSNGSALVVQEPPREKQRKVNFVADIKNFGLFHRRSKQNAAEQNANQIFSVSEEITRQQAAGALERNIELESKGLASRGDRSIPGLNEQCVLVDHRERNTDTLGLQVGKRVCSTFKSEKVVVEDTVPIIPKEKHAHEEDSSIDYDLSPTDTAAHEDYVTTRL
The experiment can be described thus: mouse TRPC4 channel inhibitors, dose response, cell-based, HEK293 TRPC4/mu-opioid, Fluo-4 calcium (AID 434942).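 Also: potency of inhibitors blocking the TRPC4 calcium response.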

Experiment [2] addresses Induced myeloid leukemia cell differentiation protein Mcl-1 (Homo sapiens, UniProt Q07820).
The target in experiment [3] is Voltage-dependent T-type calcium channel subunit alpha-1H (Homo sapiens, UniProt O95180).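 Also: channel activity triggered by adding a high calcium stimulation buffer.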
Experiment [4] in a line: intracellular Trypanosoma cruzi inhibitors in host cells – cell-based, plate reader, cherry-pick samples, set 3, dose response (AID 651818).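 Also: compounds incubated with infected cells for about four days.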
A short description of experiment [5]: HEp-2 cell cytotoxicity, dose response, cytotoxicity control for RSV inhibitor project, HTS (AID 2410). As to conditions: human respiratory syncytial virus.
Experiment [6] can be described thus: Luminescence Cell-Based Dose Response HTS to Identify Activators of Luciferase Translation or Activity in H4 […] Cells. [Related pubchem assays: 1829 (Project Summary), 1814 (Primary HTS)].
The nature of experiment [7]: Luminescence Cell-Based Dose Confirmation HTS to Identify Activators of 5'UTR Stem-Loop Driven Alpha-Synuclein mRNA Translation in H4 Neuroglioblastoma Cells. [Related pubchem assays: 1829 (Project Summary), 1814 (Primary HTS)].
In the next experiment the test system is H4. Nature of the experiment: Luminescence Cell-Based Dose Response HTS to Identify Activators of 5'UTR Stem-Loop Driven Prion Protein mRNA Translation in H4 Neuroglioblastoma Cells. [Related pubchem assays: 1829 (Project Summary), 1814 (Primary HTS)]. The settings on record: Homo sapiens.
In experiment [8] the target is T2, Heat shock factor protein 1 (Mus musculus, UniProt P38532).
T2 sequence (P38532 whole entry): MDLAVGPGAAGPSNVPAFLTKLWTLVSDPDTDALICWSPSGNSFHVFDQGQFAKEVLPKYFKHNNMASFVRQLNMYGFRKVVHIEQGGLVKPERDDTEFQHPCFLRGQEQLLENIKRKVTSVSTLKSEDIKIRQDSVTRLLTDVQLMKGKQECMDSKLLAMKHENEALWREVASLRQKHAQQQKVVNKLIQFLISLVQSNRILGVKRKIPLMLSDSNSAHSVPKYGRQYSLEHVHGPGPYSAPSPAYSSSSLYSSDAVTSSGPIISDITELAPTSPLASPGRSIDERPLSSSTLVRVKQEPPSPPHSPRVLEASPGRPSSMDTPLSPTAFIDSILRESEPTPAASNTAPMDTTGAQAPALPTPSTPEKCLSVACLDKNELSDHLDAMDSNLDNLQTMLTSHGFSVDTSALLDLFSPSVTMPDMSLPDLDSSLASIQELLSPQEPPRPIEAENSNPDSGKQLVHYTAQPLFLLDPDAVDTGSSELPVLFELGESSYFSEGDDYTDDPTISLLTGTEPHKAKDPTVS
The experiment can be described thus: inhibition of MG132-induced HSE-luciferase signal, confirmation, cell-based, NIH3T3, luminescence, dose retest (AID 2382).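 Also: NIH3T3 fibroblasts with HSF1-driven luciferase reporter stressed by proteasome inhibitor MG132; luminescence from HSF1-driven luciferase expression after 8 hours of MG132 stress.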

Experiment [9] concerns the target T3, Fatty acid synthase (Homo sapiens, UniProt P49327). The experiment can be described thus: FAS thioesterase domain inhibitors, dose response, biochemical, endpoint fluorescence intensity, uHTS hits (AID 624327).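 Also: fluorescence from hydrolysis of an O-methyl fluorescein acyl ester substrate by the enzyme.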
The target in experiment [10] is T4, Corticotropin-releasing factor receptor 2/Corticotropin-releasing factor-binding protein (Homo sapiens, UniProt P24387+Q13324).
T4 sequence (Q13324 whole entry): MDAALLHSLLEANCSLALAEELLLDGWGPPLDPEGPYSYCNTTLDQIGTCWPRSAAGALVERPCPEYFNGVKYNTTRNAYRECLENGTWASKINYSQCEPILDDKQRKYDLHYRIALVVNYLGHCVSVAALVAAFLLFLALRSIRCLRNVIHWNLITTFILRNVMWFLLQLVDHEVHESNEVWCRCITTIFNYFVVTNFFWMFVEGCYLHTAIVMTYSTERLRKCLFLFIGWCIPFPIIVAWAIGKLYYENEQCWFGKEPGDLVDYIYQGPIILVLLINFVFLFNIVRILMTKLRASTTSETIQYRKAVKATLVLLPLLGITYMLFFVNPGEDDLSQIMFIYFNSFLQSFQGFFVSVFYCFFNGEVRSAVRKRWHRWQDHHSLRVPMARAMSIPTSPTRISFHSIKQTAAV
T4 sequence (P24387 whole entry): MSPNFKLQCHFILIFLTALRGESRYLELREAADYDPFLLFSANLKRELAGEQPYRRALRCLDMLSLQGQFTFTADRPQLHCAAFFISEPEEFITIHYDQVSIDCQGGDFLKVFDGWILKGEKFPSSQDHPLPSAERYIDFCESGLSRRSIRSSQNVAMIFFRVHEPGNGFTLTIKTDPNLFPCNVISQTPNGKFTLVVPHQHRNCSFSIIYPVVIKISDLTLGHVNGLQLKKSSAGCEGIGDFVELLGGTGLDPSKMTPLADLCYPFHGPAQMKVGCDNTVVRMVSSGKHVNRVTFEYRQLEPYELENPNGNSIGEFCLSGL
Nature of the experiment: activators of CRF receptor 2 with binding protein – uHTS hits, confirmation (AID 602473). The settings on record: read-out: EC50_Mean.

The target of experiment [11] is T3, Fatty acid synthase. Nature of the experiment: FAS thioesterase domain inhibitors, dose response, biochemical, kinetic fluorescence intensity (AID 624326).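 Also: rate of fluorescence rise from hydrolysis of a fluorogenic O-methyl fluorescein ester substrate.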
In experiment [12] the target is T4, Corticotropin-releasing factor receptor 2/Corticotropin-releasing factor-binding protein. Nature of the experiment: Dose Response confirmation of uHTS hits for small molecule antagonists of the CRF-binding protein and CRF-R2 receptor complex. As to conditions: read-out: IC50_Mean.
For the next experiment, the system named is P388/ADR. Nature of the experiment: cells. As to conditions: Mus musculus.
Another experiment deals with P388. Nature of the experiment: cells. The settings on record: Mus musculus.
The subject of the next experiment is SN12K1. Nature of the experiment: cells. The settings on record: Homo sapiens.

SMILES strings stand for the structures. Activity calls are given as the source filed them.

Induced myeloid leukemia cell differentiation protein Mcl-1, sequence (Q07820 whole entry): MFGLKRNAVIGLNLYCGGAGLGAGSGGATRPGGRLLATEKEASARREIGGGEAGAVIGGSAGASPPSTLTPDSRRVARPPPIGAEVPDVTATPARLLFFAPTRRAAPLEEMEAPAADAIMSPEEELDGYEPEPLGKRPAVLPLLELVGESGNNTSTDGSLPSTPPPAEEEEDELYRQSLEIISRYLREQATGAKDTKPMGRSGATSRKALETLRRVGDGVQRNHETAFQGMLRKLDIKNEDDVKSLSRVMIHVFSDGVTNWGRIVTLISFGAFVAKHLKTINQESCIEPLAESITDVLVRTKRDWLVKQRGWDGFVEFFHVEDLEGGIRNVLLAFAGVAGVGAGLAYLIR
Voltage-dependent T-type calcium channel subunit alpha-1H, sequence (O95180 whole entry): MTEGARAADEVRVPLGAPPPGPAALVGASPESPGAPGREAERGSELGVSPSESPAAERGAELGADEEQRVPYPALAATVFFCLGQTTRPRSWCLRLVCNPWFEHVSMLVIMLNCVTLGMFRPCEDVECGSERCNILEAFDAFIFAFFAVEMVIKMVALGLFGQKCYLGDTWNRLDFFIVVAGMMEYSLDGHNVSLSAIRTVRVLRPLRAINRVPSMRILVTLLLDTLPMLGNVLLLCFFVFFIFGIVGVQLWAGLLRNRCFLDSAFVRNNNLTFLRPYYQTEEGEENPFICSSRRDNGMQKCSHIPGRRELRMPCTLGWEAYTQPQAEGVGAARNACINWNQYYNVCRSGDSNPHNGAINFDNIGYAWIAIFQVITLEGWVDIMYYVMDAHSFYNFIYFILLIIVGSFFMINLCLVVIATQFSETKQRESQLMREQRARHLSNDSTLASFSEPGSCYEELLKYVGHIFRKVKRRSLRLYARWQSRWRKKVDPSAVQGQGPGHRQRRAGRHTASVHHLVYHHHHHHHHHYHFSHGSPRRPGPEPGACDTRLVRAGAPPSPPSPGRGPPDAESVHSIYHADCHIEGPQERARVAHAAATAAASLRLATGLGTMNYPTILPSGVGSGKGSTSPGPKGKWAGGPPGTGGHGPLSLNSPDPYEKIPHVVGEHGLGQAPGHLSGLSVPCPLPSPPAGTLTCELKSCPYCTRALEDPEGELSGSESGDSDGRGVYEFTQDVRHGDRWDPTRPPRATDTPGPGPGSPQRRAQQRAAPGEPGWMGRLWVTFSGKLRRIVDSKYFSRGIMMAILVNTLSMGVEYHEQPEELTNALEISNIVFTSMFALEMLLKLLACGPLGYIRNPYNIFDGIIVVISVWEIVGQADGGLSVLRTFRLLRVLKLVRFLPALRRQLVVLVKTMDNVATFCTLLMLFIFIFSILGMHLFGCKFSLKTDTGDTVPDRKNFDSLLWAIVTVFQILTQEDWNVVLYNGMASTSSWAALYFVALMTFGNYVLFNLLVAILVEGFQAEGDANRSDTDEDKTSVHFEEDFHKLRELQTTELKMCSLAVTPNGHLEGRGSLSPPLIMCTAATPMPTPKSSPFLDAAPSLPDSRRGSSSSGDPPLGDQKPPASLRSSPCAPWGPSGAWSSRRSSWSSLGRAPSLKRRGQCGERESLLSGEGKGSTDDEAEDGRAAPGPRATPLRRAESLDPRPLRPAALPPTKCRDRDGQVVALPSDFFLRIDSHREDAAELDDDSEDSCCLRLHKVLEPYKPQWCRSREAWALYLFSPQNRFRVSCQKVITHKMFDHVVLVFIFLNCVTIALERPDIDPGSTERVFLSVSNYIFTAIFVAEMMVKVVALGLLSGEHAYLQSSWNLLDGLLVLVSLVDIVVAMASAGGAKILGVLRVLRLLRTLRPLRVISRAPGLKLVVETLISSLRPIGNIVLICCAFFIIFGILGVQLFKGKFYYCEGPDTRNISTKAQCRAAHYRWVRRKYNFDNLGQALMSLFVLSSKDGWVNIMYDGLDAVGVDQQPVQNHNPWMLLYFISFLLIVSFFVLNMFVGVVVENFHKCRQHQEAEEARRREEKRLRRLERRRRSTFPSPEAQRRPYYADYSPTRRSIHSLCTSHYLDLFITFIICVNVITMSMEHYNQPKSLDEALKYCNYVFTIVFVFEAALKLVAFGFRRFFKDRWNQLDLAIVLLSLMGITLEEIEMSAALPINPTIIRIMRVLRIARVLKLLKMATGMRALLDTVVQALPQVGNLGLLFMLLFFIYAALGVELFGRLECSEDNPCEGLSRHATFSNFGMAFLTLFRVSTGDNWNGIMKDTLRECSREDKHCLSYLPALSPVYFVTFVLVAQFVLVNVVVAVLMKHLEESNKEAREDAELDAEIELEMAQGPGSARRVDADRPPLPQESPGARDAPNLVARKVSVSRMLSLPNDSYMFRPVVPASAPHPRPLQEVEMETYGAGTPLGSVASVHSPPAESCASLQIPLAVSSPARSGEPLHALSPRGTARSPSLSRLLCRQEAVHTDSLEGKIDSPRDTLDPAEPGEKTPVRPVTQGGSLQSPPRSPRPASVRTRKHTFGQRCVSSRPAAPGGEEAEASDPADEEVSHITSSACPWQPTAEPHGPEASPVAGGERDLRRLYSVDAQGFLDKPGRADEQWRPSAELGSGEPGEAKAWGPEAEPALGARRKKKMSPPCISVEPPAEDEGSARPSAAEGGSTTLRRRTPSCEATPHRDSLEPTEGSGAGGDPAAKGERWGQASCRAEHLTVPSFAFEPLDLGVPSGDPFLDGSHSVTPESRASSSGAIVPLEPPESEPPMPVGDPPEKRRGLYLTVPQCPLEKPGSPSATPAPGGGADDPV

As for `N=c1n(CCO)c2ccccc2n1Cc1ccc(Cl)cc1`, the EC50 in experiment [1] is 3.35 µM (active). With `Nc1cc2c(cc1[N+](=O)[O-])OCO2`, in experiment [2], the IC50 is 5.21 µM (active). In the case of `CCn1nccc1C(=O)Nc1cc(Cl)cc(Cl)c1`, in experiment [3], the EC50 was 7.54 µM (active). As for `S=C(NCc1ccco1)N1CCN(Cc2ccc(Cl)cc2Cl)CC1`, the EC50 in experiment [3] is 4.2 µM (active). Turning to `CCC(C)(C)n1nnnc1C(c1ccc(O)c(OC)c1)N1CCc2ccccc2C1` (centres undefined), the IC50 in [2] was 6.3 µM (active). Broadly, the AC50 is the concentration at which the activity in the assay is half-maximal. As to `C[C@@H]1CN([C@@H](C)CO)C(=O)Cc2cc(NC(=O)Nc3ccc(F)cc3)ccc2O[C@@H]1CN(C)Cc1ccc(Cl)c(Cl)c1`, the AC50 in [4] is 3.42 µM (active). As to `COc1ccc(N2CCN(C(=O)CCc3nc(-c4ccc(C)cc4)no3)CC2)cc1`, in experiment [3], the EC50 is 2.1 µM (active). Usually CC50 stands for the concentration giving 50% cytotoxicity. Turning to `Cc1cc(Nc2ccc(C)c(C)c2)c2ccccc2n1`, the EC50 in experiment [1] is 2.11 µM (active). Moreover, the CC50 in experiment [5] is 26.1 µM (active). As for `N#C/C(=C(/O)c1ccc(-c2cccc([N+](=O)[O-])c2)o1)c1nc2ccccc2s1`, the values for the EC50 (in experiment [6]; in experiment [7]; with H4) were 9.39 µM (active), > 120 µM (not active) and > 120 µM (not active), respectively. The IC50 in experiment [2] was 5.38 µM (active). `O=C(CSc1nc2ccccc2[nH]1)Nc1ccc(F)c(F)c1`: the EC50 in [8] is > 195 µM (not active); in [3] it was 6.59 µM (active).

For `Cn1c(=O)c2cc3c(nc2n(C)c1=O)CC(c1ccccc1)CC3=O` (centres undefined), the IC50 on Fatty acid synthase [9] is 10.5 µM (active); at Fatty acid synthase [11], 14.5 µM (active); in [12], > 47.1 µM (inactive). Moreover, the EC50 in experiment [10] was > 53 µM (inactive). As for `Cc1cccc(OCC(=O)Nc2ccccc2N2CCN(C(=O)C(C)C)CC2)c1C`, the EC50 in experiment [3] was 2.13 µM (active). Same read-out and setting: for `O=C(CSCc1cnn(-c2ccccc2)c1-n1cccc1)NCc1ccc2c(c1)OCO2` the value was 2.98 µM (active).

Regarding `Cc1[nH]c2ccc(C(=O)OC(C)C(=O)N(C)c3ccccc3)cc2c1C` (centres undefined), the EC50 in [1] was 0.749 µM (active). On the same count and under the same terms, for `COc1cc(C(=O)N(CCc2ccccc2)C2=CC3CCC(C2)N3C)cc(OC)c1OC` (centres undefined) the value was 0.335 µM (active). As for `COc1ccc(CNC(=O)CC2C[C@H](C(=O)N3CCOCC3)[C@@]3(CCC4CCCC4)c4[nH]c5ccccc5c4CCN3C2=O)cc1OC` (some centres undefined), the IC50 at Fatty acid synthase [9] was 3.67 µM (active); at Fatty acid synthase [11] it was 4.73 µM (active).

The GI50 is the concentration at which growth is held to half of that of the control. As to `CC1=CC2=C(C=O)C(=O)[C@](C)(O)[C@@H](O)C2=CO1`, the GI50 is 14.5 µM (inactive) with P388/ADR, 15 µM (inactive) with P388 and 30.4 µM (inactive) in the experiment with SN12K1. Regarding `COc1ccc(S(=O)(=O)Nc2ccc3c(c2)CC(=O)N([C@H](C)CO)C[C@@H](C)[C@@H](CN(C)S(=O)(=O)c2ccc(F)cc2)O3)cc1`, the AC50 in experiment [4] was 2.24 µM (active).

In the case of `C[C@H](CO)N1C[C@H](C)[C@@H](CN(C)S(=O)(=O)c2ccc(Cl)cc2)Oc2c(NC(=O)c3nc4ccccc4s3)cccc2C1=O`, the AC50 in [4] is 1.73 µM (active). The same measure, in the same setting: for `Cc1ccc(S(=O)(=O)Nc2ccc3c(c2)CC(=O)N([C@@H](C)CO)C[C@H](C)[C@H](CN(C)Cc2ccc(C(=O)Nc4ccccc4N)cc2)O3)cc1` the value was 2.31 µM (active). For the compound `CC[C@@]1(O)C(=O)OCc2c1cc1n(c2=O)Cc2cc3cc(O)ccc3nc2-1` [HYDROXYCAMPTOTHECIN], the 50% growth inhibitory concentration (GI50) with P388/ADR was 0.0304 µM (active); in the experiment with P388, 0.0203 µM (active); in the experiment on SN12K1, 0.01 µM (active).

For the origin of these results see ChEMBL document CHEMBL1201862, “PubChem BioAssay data set” (2004).
